In brackets after ≈: the same amount, converted by molar mass.
How the values were obtained:
Assay type in all cases: cell-based
[1] = system: Mouse abdominal cavity macrophages; assay: Suppression of macrophage activation caused by zymosan A (control), nitrogen monoxide production (Griess); details: zymosan A 140 ng/ml instead of Aβ, 72 hours, mouse interferon γ and polymyxin B, NO production, read-out: IC50 (μg/ml) zymosan A
Description: (§1) Suppression of microglia activation caused by β-amyloid Mouse abdominal cavity macrophages were prepared as follows for use as a model for microglia. A mouse (C3H/He, N, male, 7-10 weeks old: Nippon SLC) was subjected to cervical vertebrae dislocation then sprayed with 70% ethanol, the skin of the abdomen was cut open leaving the muscularis, from 5 to 7 ml of PBS (phosphate buffered saline) were injected into the abdominal cavity using a 24 G injection needle, the back was squeezed firmly, then injection solution was drawn from the abdominal cavity using a 23 G injection needle. The cells in the collected solution were centrifugally sedimented (900 rpm, 5 minutes) and washed using PBS, then 8×10^4/well were inoculated onto a 96-well microplate in culture solution (DMEM (Sigma), 10% FBS (Gibco), 100 U/ml penicillin+100 μg/ml streptomycin (Sigma)) and cultured in a 5% CO2/95% air incubator at 37° C. The amount of nitrogen monoxide produced was taken as an indicator of macrophage activation. Specifically, the macrophages were incubated for 72 hours in the presence of 1) Aβ1-42 (20 μg/ml: Sigma), and 2) Aβ1-42 and the test compound, then 50 μl of Griess reagent (0.1% N-(1-naphthyl)ethylenediamine (Sigma), 1% sulphanilamide (Sigma), 3% H3PO4) were added to 50 μl of the supernatant, and the light absorbance at 570 nm was measured. It should be noted that this experiment was conducted in culture solution containing mouse interferon γ (250 U/ml: genzyme techne) and polymyxin B (10 μg/ml: Sigma). Also, the same operations were performed using zymosan A (140 ng/ml: Molecular Probes) or LPS (500 pg/ml: Sigma) instead of Aβ, as controls. For LPS, culture medium containing only mouse interferon γ was used.
(§2) The concentration when the absorbance in the presence of 2) Aβ and test compound was 50% of the absorbance when 1) only Aβ 1-42 was added was taken as IC50, and the activity of the compound was appraised in terms of this value.

[2] = system: Mouse abdominal cavity macrophages; assay: Suppression of macrophage (microglia model) activation caused by β-amyloid, nitrogen monoxide production (Griess); details: Aβ1-42 20 μg/ml, 72 hours, mouse interferon γ 250 U/ml and polymyxin B 10 μg/ml, NO production, absorbance at 570 nm
Description: as §1, §2

[3] = system: Mouse abdominal cavity macrophages; assay: Suppression of macrophage activation caused by LPS (control), nitrogen monoxide production (Griess); details: LPS 500 pg/ml instead of Aβ, 72 hours, culture medium containing only mouse interferon γ, NO production, read-out: IC50 (μg/ml) LPS
Description: as §1, §2

Structure (SMILES)	IC50 [1]	IC50 [2]	IC50 [3]
c1ccc(CCN2CCc3c(C4CC4)nc4ncnn4c32)cc1 [Compound A]	> 5 µg/mL	0.4 µg/mL (≈ 1.31 µM)	> 5 µg/mL
Cc1nc2ncnn2c2c1CCN2CCc1ccccc1 [Compound B]	> 5 µg/mL	0.5 µg/mL (≈ 1.79 µM)	> 5 µg/mL
Cc1nc2ncnn2c2c1CCN2C(C)c1ccccc1 (stereo not drawn) [Compound C]	> 5 µg/mL	0.4 µg/mL (≈ 1.43 µM)	> 5 µg/mL
Cc1nc2ncnn2c2c1CC(C)N2Cc1ccccc1F (stereo not drawn) [Compound D]	> 5 µg/mL	2.3 µg/mL (≈ 7.74 µM)	> 5 µg/mL
Cc1nc2ncnn2c2c1CCN2Cc1ccccc1F [Compound E]	> 5 µg/mL	3.2 µg/mL (≈ 11.3 µM)	> 5 µg/mL
Cc1nc2ncnn2c2c1CC(C)N2Cc1ccccc1Cl (stereo not drawn) [Compound F]	> 5 µg/mL	3.6 µg/mL (≈ 11.5 µM)	> 5 µg/mL
Cc1nc2ncnn2c2c1ccn2Cc1ccccc1Cl [Compound G]	> 5 µg/mL	3.8 µg/mL (≈ 12.8 µM)	> 5 µg/mL
Cc1nc2ccnn2c2c1CCN2Cc1ccccc1 [Compound H]	> 5 µg/mL	4 µg/mL (≈ 15.1 µM)	> 5 µg/mL
Cc1nc2ncnn2c2c1CCN2Cc1ccccc1 [Compound I]	> 5 µg/mL	4.3 µg/mL (≈ 16.2 µM)	> 5 µg/mL
Cc1nc2ncnn2c2c1CCN2Cc1ccccc1Cl [Compound J]	> 5 µg/mL	5 µg/mL (≈ 16.7 µM)	> 5 µg/mL
Cc1nc2ncnn2c2c1CCN2C(C)(C)c1ccccc1 [Compound K]	> 5 µg/mL	5 µg/mL (≈ 17 µM)	> 5 µg/mL
